Experimental data from PMC11596392, “Enhanced Antibacterial, Anti-Inflammatory, and Antibiofilm Activities of Tryptophan-Substituted Peptides Derived from Cecropin A-Melittin Hybrid Peptide BP100” (Molecules, 2024).
Where no end group is shown, it is not given here.

Columns and labels:
[1] = test system: sheep red blood cells (sRBCs); test: Hemolytic activity assay; type: cell-based; conditions: 4% (v/v) sheep red blood cells in PBS, 1 h, 37 °C; 1 to 256 μM tested
Description: To assess toxicity in mammalian cells, we evaluated the hemolytic activity of the peptides on sheep red blood cells (sRBCs). […] The therapeutic index (TI), a measure commonly employed to evaluate the cell selectivity of antibacterial agents, was calculated as the ratio of the concentration causing 10% hemolysis of sRBCs (HC10) to the GM [19, 20, 21, 22].
The hemolytic activity of the peptides was tested through hemolysis assay of sheep red blood cells (sRBCs). The sRBCs were diluted in PBS to achieve a 4% (v/v) concentration. Subsequently, 100 μL of peptide solutions, ranging from 1 to 256 μM, was dispensed into a 96-well plate containing an equal volume of the erythrocyte suspension. After incubating for 1 h at 37 °C and centrifuging at 1000× g for 10 min, 100 μL of the supernatant was transferred to a new 96-well plate. Hemoglobin release was quantified using a microplate reader at a wavelength of […]. The percentage of hemolysis was calculated using percentage hemolysis = 100 × [[…]], where A represents the absorbance of the peptide-treated sample at 540 nm, A0 corresponds to the absorbance value representing 0% hemolysis in PBS, and At corresponds to the absorbance value representing 100% hemolysis in 0.1% Triton X-100.

[2] = test system: MDRPA (CCARM 2095); type: cell-based, multidrug-resistant Pseudomonas aeruginosa; conditions: broth microdilution in MHB, 37 °C, 24 h, 100% inhibition of growth
Description: (§1) The antibacterial efficacy of the synthesized peptides was evaluated by determining the minimal inhibitory concentrations (MICs) against six standard bacterial strains and five drug-resistant bacterial strains using the Clinical and Laboratory Standards Institute (CLSI) microdilution method. Melittin served as the positive control.
(§2) The minimal inhibitory concentrations (MICs) of the peptides against bacterial strains were determined using a modified broth-microdilution method in accordance with the National Committee for Clinical Laboratory Standards (NCCLS) guidelines. Overnight cultures were diluted in cation-adjusted Mueller–Hinton Broth (MHB) to achieve an inoculum density of 2 × 10^6 CFU/mL. A two-fold serial dilution of the peptide solution (100 μL) was introduced into microtiter plates, followed by the addition of 100 μL of bacterial suspension. The plates were then incubated at 37 °C for 24 h to determine the MICs. Wells containing only culture media served as negative controls, while those with added bacteria functioned as positive controls. The MIC, expressed in μM, was defined as the lowest peptide concentration that prevented visible bacterial growth. This protocol was also employed to determine MICs in the presence of physiological salts (150 mM of NaCl, 4.5 mM of KCl, 6 μM of NH4Cl, 1 mM of MgCl2, 2.5 mM of CaCl2, and 4 μM of FeCl3) and 20% human serum to assess the peptides’ efficacy under conditions more closely resembling physiological environments. All experiments were conducted in triplicate and repeated three times independently to ensure reproducibility and statistical significance of the results.

[3] = test system: MDRPA (CCARM 2109); type: cell-based, multidrug-resistant Pseudomonas aeruginosa; conditions: broth microdilution in MHB, 37 °C, 24 h, 100% inhibition of growth
Description: as §1, §2

[4] = test system: S. aureus (KCTC 1621); type: cell-based, Staphylococcus aureus; conditions: broth microdilution in MHB, 37 °C, 24 h, 100% inhibition of growth
Description: as §1, §2

[5] = test system: E. coli (KCTC 1682); type: cell-based, Escherichia coli; conditions: broth microdilution in MHB, 37 °C, 24 h, 100% inhibition of growth
Description: as §1, §2

[6] = test system: B. subtilis (KCTC 3068); type: cell-based, Bacillus subtilis; conditions: broth microdilution in MHB, 37 °C, 24 h, 100% inhibition of growth
Description: as §1, §2

[7] = test system: P. aeruginosa (KCTC 1637); type: cell-based, Pseudomonas aeruginosa; conditions: broth microdilution in MHB, 37 °C, 24 h, 100% inhibition of growth
Description: as §1, §2

[8] = test system: preformed MDRPA (CCARM 2095) biofilms; type: cell-based, multidrug-resistant Pseudomonas aeruginosa; conditions: 24 h treatment
How it was run: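 MDRPA CCARM 2095 biofilms grown 24 h at 37 °C, 110 rpm on Calgary peg lids in LB from 1 × 10^6 CFU/mL, then exposed to peptides 24 h. Pegs sonicated into LB recovery plate, regrown 24 h; MBEC is lowest concentration preventing turbidity, median of triplicates.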

[9] = test system: MRSA (CCARM 3090); type: cell-based, methicillin-resistant Staphylococcus aureus; conditions: broth microdilution in MHB, 37 °C, 24 h, 100% inhibition of growth
Description: as §1, §2

[10] = test system: MRSA (CCARM 3089); type: cell-based, methicillin-resistant Staphylococcus aureus; conditions: broth microdilution in MHB, 37 °C, 24 h, 100% inhibition of growth
Description: as §1, §2

KKWWKKILKYL-NH2 [BP5]
HC10 (peptide concentration that caused 10% hemolysis) [1]: >256 µM
Minimal Inhibitory Concentration (MIC) [2]: 8 µM
Minimal Inhibitory Concentration (MIC) [3]: 4 µM
Minimal Inhibitory Concentration (MIC) [4]: 2 µM
Minimal Inhibitory Concentration (MIC) [5]: 2 µM
Minimal Inhibitory Concentration (MIC) [6]: 2 µM
Minimal Inhibitory Concentration (MIC) [7]: 4 µM
MBEC50 ([8]; 50% eradication): 2 µM
MBEC90 ([8]; 90% eradication): 8 µM
Minimal Inhibitory Concentration (MIC) [9]: 8 µM
Minimal Inhibitory Concentration (MIC) [10]: 4 µM
